Our source for the viability values is paper PMC11995724, “Antibiotic target discovery by integrated phenotypic and activity-based profiling of electrophilic fragments” (Cell chemical biology, 2025).

This series is described as follows: in vitro. The conditions noted are these: human, hek293t cells.
Regarding `C=CC(=O)N(Cc1ccccc1)C1CCOc2ccc(OC)cc21` (centres unmarked) [1-O17, N-benzyl-N-(6-methoxy-3,4-dihydro-2H-1-benzopyran-4-yl)prop-2-enamide], the viability – broadly, a read-out of living cells in per cent, often relative to untreated cells – at 48 h, 25 µM is 71.6%.

Turning to `C=CC(=O)NCc1ccnn1CC(F)(F)F` [1-O18, N-{[1-(2,2,2-trifluoroethyl)-1H-pyrazol-5-yl]methyl}prop-2-enamide], the viability at 48 h, 25 µM came out at 168%.

Consider `C=CC(=O)NC[C@@H]1C[C@H]1C1CCCCC1` [1-O19, N-{[(1R,2S)-2-cyclohexylcyclopropyl]methyl}prop-2-enamide], for which the viability at 48 h, 25 µM stood at 106%.

Take `C=CC(=O)Nc1ccc(C(F)C(F)(F)F)cc1` (centres unmarked) [1-O20, N-[4-(1,2,2,2-tetrafluoroethyl)phenyl]prop-2-enamide]: the viability at 48 h, 25 µM stood at 85.4%.

Consider `C=CC(=O)N1CCC(c2nc(C(=O)O)cs2)CC1` [1-O21, 2-[1-(prop-2-enoyl)piperidin-4-yl]-1,3-thiazole-4-carboxylic acid], for which the viability at 48 h, 25 µM was 96.9%.

For the compound `C=CC(=O)NC(C1CCC1)C1CCOC1` (centres unmarked) [1-O22, N-[cyclobutyl(oxolan-3-yl)methyl]prop-2-enamide], the viability at 48 h, 25 µM came to 113%.

`C=CC(=O)N1CCc2cc(C(N)=O)ccc21` [1-P03, 1-(prop-2-enoyl)-2,3-dihydro-1H-indole-5-carboxamide]: the viability at 48 h, 25 µM came out at 172%.

`C=CC(=O)N(Cc1ccccc1)Cc1ccccc1` [1-P04, N,N-dibenzylprop-2-enamide]: the viability at 48 h, 25 µM worked out at 60.4%.

`C=CC(=O)NC1CCC(c2nc(-c3ccccc3)n[nH]2)CC1` (centres unmarked) [1-P05, N-[4-(3-phenyl-1H-1,2,4-triazol-5-yl)cyclohexyl]prop-2-enamide]: the viability at 48 h, 25 µM worked out at 104%.

On to `C=CC(=O)Nc1ccc(C(N)=O)cc1C` [1-P06, 3-methyl-4-(prop-2-enamido)benzamide], for which the viability at 48 h, 25 µM was 84.8%.

Turning to `C=CC(=O)N[C@H]1CCCC[C@H]1n1cc(C(C)(C)O)nn1` [1-P07, N-[(1S,2R)-2-[4-(2-hydroxypropan-2-yl)-1H-1,2,3-triazol-1-yl]cyclohexyl]prop-2-enamide], the viability at 48 h, 25 µM was determined as 128%.

With `C=CC(=O)NCC1(OC)CCC(C)CC1` (centres unmarked) [1-P08, N-[(1-methoxy-4-methylcyclohexyl)methyl]prop-2-enamide], the viability at 48 h, 25 µM was 80.5%.

Regarding `C=CC(=O)N(Cc1cn(C)nc1-c1ccc(F)cc1)C1CC(C)C1` (centres unmarked) [1-P09, N-{[3-(4-fluorophenyl)-1-methyl-1H-pyrazol-4-yl]methyl}-N-(3-methylcyclobutyl)prop-2-enamide], the viability at 48 h, 25 µM worked out at 64.1%.

Take `C=CC(=O)NCC(C)c1ncc(C)s1` (centres unmarked) [1-P10, N-[2-(5-methyl-1,3-thiazol-2-yl)propyl]prop-2-enamide]: the viability at 48 h, 25 µM came to 43.9%.

Regarding `C=CC(=O)N1CCN(C(=O)c2ccco2)CC1` [1-P11, 1-[4-(furan-2-carbonyl)piperazin-1-yl]prop-2-en-1-one], the viability at 48 h, 25 µM worked out at 88.3%.

With `C=CC(=O)Nc1onc(C2CCCCC2)c1CC(C)C` [1-P12, N-[3-cyclohexyl-4-(2-methylpropyl)-1,2-oxazol-5-yl]prop-2-enamide], the viability at 48 h, 25 µM was determined as 0.308%.

Regarding `C=CC(=O)N(Cc1cn(C)nc1C)c1ccc2c(c1)OCCO2` [1-P13, N-(2,3-dihydro-1,4-benzodioxin-6-yl)-N-[(1,3-dimethyl-1H-pyrazol-4-yl)methyl]prop-2-enamide], the viability at 48 h, 25 µM is 81.5%.

With `C=CC(=O)Nc1ncc(-c2cccc(C)c2)s1` [1-P14, N-[5-(3-methylphenyl)-1,3-thiazol-2-yl]prop-2-enamide], the viability at 48 h, 25 µM turned out to be 63.6%.

Take `C=CC(=O)N(Cc1cc(C)c2ncccc2c1)C(C)C1CCCO1` (centres unmarked) [1-P15, N-[(8-methylquinolin-6-yl)methyl]-N-[1-(oxolan-2-yl)ethyl]prop-2-enamide]: the viability at 48 h, 25 µM was 93.5%.

In the case of `C=CC(=O)N1CCn2nccc21` [1-P16, 1-{1H,2H,3H-pyrazolo[1,5-a]imidazol-1-yl}prop-2-en-1-one], the viability at 48 h, 25 µM was 56.6%.

With `C=CC(=O)N1CSCC1C(=O)NCC1CC1` (centres unmarked) [1-P17, N-(cyclopropylmethyl)-3-(prop-2-enoyl)-1,3-thiazolidine-4-carboxamide], the viability at 48 h, 25 µM worked out at 105%.

In the case of `C=CC(=O)N1CC(OCc2nc(C)no2)C1` [1-P18, 1-{3-[(3-methyl-1,2,4-oxadiazol-5-yl)methoxy]azetidin-1-yl}prop-2-en-1-one], the viability at 48 h, 25 µM came to 67.7%.

As for `C=CC(=O)NCc1ccc(N2CCCC(C(N)=O)C2)cc1` (centres unmarked) [1-P19, 1-{4-[(prop-2-enamido)methyl]phenyl}piperidine-3-carboxamide], the viability at 48 h, 25 µM was 126%.

For the compound `C=CC(=O)N1CCOC(c2ccccc2Cl)C1` (centres unmarked) [1-P20, 1-[2-(2-chlorophenyl)morpholin-4-yl]prop-2-en-1-one], the viability at 48 h, 25 µM came to 72.7%.

`C=CC(=O)NCCC1=CCCCCC1` [1-P21, N-[2-(cyclohept-1-en-1-yl)ethyl]prop-2-enamide]: the viability at 48 h, 25 µM came to 93.5%.

Regarding `C=CC(=O)N1CCCC(C2CCN(C(=O)c3cc(C)nn3C)CC2)C1` (centres unmarked) [1-P22, 1-[1'-(1,3-dimethyl-1H-pyrazole-5-carbonyl)-[3,4'-bipiperidin]-1-yl]prop-2-en-1-one], the viability at 48 h, 25 µM was determined as 55.9%.

As to `C=CC(=O)NCCn1nnnc1C` [2-A03, N-[2-(5-methyl-1H-1,2,3,4-tetrazol-1-yl)ethyl]prop-2-enamide], the viability at 48 h, 25 µM came out at 110%.

Consider `C=CC(=O)Nc1ccnc(OC2CCCCC2)c1` [2-A04, N-[2-(cyclohexyloxy)pyridin-4-yl]prop-2-enamide], for which the viability at 48 h, 25 µM came out at 0.76%.

With `C=CC(=O)NC(C)c1cnc(C(F)(F)F)s1` (centres unmarked) [2-A05, N-{1-[2-(trifluoromethyl)-1,3-thiazol-5-yl]ethyl}prop-2-enamide], the viability at 48 h, 25 µM is 73.5%.

As to `C=CC(=O)N1CCC(Cc2nc(C3CCC3)no2)CC1` [2-A06, 1-{4-[(3-cyclobutyl-1,2,4-oxadiazol-5-yl)methyl]piperidin-1-yl}prop-2-en-1-one], the viability at 48 h, 25 µM was 93%.

With `C=CC(=O)N(Cc1c2c(nn1C)CCOC2)c1cc(C)cc(C)c1` [2-A07, N-(3,5-dimethylphenyl)-N-({2-methyl-2H,4H,6H,7H-pyrano[4,3-c]pyrazol-3-yl}methyl)prop-2-enamide], the viability at 48 h, 25 µM was determined as 57.4%.

As to `C=CC(=O)N1CCC(C(=O)Nc2ncc(CCO)s2)CC1` [2-A08, N-[5-(2-hydroxyethyl)-1,3-thiazol-2-yl]-1-(prop-2-enoyl)piperidine-4-carboxamide], the viability at 48 h, 25 µM turned out to be 79.1%.

With `C=CC(=O)NCCN(C)S(=O)(=O)c1cccs1` [2-A09, N-[2-(N-methylthiophene-2-sulfonamido)ethyl]prop-2-enamide], the viability at 48 h, 25 µM is 129%.

As to `C=CC(=O)NC(c1ccc(C)cc1)C(C)S(C)(=O)=O` (centres unmarked) [2-A10, N-[2-methanesulfonyl-1-(4-methylphenyl)propyl]prop-2-enamide], the viability at 48 h, 25 µM was determined as 100%.

As to `C=CC(=O)NCC1(c2nc(-c3ccccc3)cs2)CCOCC1` [2-A11, N-{[4-(4-phenyl-1,3-thiazol-2-yl)oxan-4-yl]methyl}prop-2-enamide], the viability at 48 h, 25 µM stood at 93.1%.

In the case of `C=CC(=O)NCc1ccc(C(=O)N2CCC(NC(C)=O)CC2)cc1` [2-A12, N-{[4-(4-acetamidopiperidine-1-carbonyl)phenyl]methyl}prop-2-enamide], the viability at 48 h, 25 µM was 90.5%.

As for `C=CC(=O)N(Cc1c(F)cc(C)cc1Cl)C1CCCOCC1` (centres unmarked) [2-A13, N-[(2-chloro-6-fluoro-4-methylphenyl)methyl]-N-(oxepan-4-yl)prop-2-enamide], the viability at 48 h, 25 µM is 99%.

`C=CC(=O)NCCc1ccc(S(C)(=O)=O)cc1` [2-A14, N-[2-(4-methanesulfonylphenyl)ethyl]prop-2-enamide]: the viability at 48 h, 25 µM is 93.7%.

`C=CC(=O)N1CC[C@H](Oc2ccc(F)cc2)C1` [2-A15, 1-[(3S)-3-(4-fluorophenoxy)pyrrolidin-1-yl]prop-2-en-1-one]: the viability at 48 h, 25 µM came to 185%.

As for `C=CC(=O)N1CC(S(=O)(=O)N2CCOCC2)C1` [2-A16, 1-[3-(morpholine-4-sulfonyl)azetidin-1-yl]prop-2-en-1-one], the viability at 48 h, 25 µM is 74%.

Take `C=CC(=O)Nc1cc(C)n(CC(C)c2nnc3n2CCCCC3)n1` (centres unmarked) [2-A17, N-[5-methyl-1-(2-{5H,6H,7H,8H,9H-[1,2,4]triazolo[4,3-a]azepin-3-yl}propyl)-1H-pyrazol-3-yl]prop-2-enamide]: the viability at 48 h, 25 µM was 175%.

Consider `C=CC(=O)NC1CC2CCC(C1)N2S(C)(=O)=O` (centres unmarked) [2-A18, N-{8-methanesulfonyl-8-azabicyclo[3.2.1]octan-3-yl}prop-2-enamide], for which the viability at 48 h, 25 µM was 93.8%.

As for `C=CC(=O)NCc1nc(C2CC2)cs1` [2-A19, N-[(4-cyclopropyl-1,3-thiazol-2-yl)methyl]prop-2-enamide], the viability at 48 h, 25 µM stood at 103%.

Consider `C=CC(=O)N1CCC(n2ccc(C)n2)CC1` [2-A21, 1-[4-(3-methyl-1H-pyrazol-1-yl)piperidin-1-yl]prop-2-en-1-one], for which the viability at 48 h, 25 µM is 139%.

For the compound `C=CC(=O)N(c1cc(C)ccc1C#N)C(C)C` [2-A22, N-(2-cyano-5-methylphenyl)-N-(propan-2-yl)prop-2-enamide], the viability at 48 h, 25 µM is 111%.

As for `C=CC(=O)NCc1ccc(-n2ccc(C3CC3)n2)cc1` [2-B03, N-{[4-(3-cyclopropyl-1H-pyrazol-1-yl)phenyl]methyl}prop-2-enamide], the viability at 48 h, 25 µM was 85.9%.

Regarding `C=CC(=O)N1CCC(C(=O)NCCC2(O)CCCOC2)CC1` (centres unmarked) [2-B04, N-[2-(3-hydroxyoxan-3-yl)ethyl]-1-(prop-2-enoyl)piperidine-4-carboxamide], the viability at 48 h, 25 µM was 70%.

For `C=CC(=O)NCC1CCN(C)C1=O` (centres unmarked) [2-B05, N-[(1-methyl-2-oxopyrrolidin-3-yl)methyl]prop-2-enamide], the viability at 48 h, 25 µM worked out at 71.1%.

Regarding `C=CC(=O)N1CCC(C(=O)N2CCC(c3ncco3)CC2)CC1` [2-B06, 1-{4-[4-(1,3-oxazol-2-yl)piperidine-1-carbonyl]piperidin-1-yl}prop-2-en-1-one], the viability at 48 h, 25 µM worked out at 78.3%.

On to `C=CC(=O)N(C1CCCC1)C(C)c1nnc2ccccn12` (centres unmarked) [2-B07, N-cyclopentyl-N-(1-{[1,2,4]triazolo[4,3-a]pyridin-3-yl}ethyl)prop-2-enamide], for which the viability at 48 h, 25 µM was found to be 51.9%.
